According to patent publication US7317028B2, “Cell differentiation inducer” (Schering Aktiengesellschaft, priority 1996, dated 2008):
Where a name gives a salt, the structure may show the parent alone. Read-outs that look alike come from different tables or passages of the source.

Test system: A2780 cells
Experiment: Test for induction of differentiation in A2780 cells (ALP activity, ALPmin)
Assay type: cell-based, human
Method: Increase of alkaline phosphatase (ALP) activity is known as an indicator for differentiation of human colon cancer cells. […] Thus, differentiation inducing action was evaluated using ALP activity as an indicator.
To each well of a 96-well plate was placed 0.1 mL of A2780 cells (15,000 cells/well) and the next day was added 0.1 mL of a sequential dilute of test solution with the medium. […] The reaction was quenched with 0.05 mL/well of 3N sodium hydroxide aq. For each well, an absorbance at 405 nm was measured to determine the minimum concentration of the drug inducing increase of ALP activity (ALPmin).

[1] = Homo sapiens, 72 h, A2780 cells, 3 days incubation, minimum concentration of the drug inducing increase of ALP activity
[2] = A2780 cells, 3 days incubation, minimum concentration of the drug inducing increase of ALP activity

Compound | minimal effective concentration [1] [µM] | also measured
Nc1cccc(NC(=O)c2ccc(CNC(=O)OCc3cccnc3)cc2)c1 [Comp. Ex. 1, N-(3-aminophenyl)-4-[N-(pyridin-3-yl)methoxycarbonylaminomethyl]benzamide, reference compound] | > 100 | –
Nc1ccc(NC(=O)c2ccc(CNC(=O)OCc3cccnc3)cc2)cc1 [Comp. Ex. 2, N-(4-aminophenyl)-4-[N-(pyridin-3-yl)methoxycarbonylaminomethyl]benzamide, reference compound] | > 100 | –
Cc1ccc(C(=O)NCc2ccc(C(=O)Nc3ccccc3N)cc2)cc1 [Example 4, N-(2-aminophenyl)-4-[N-(4-methylbenzoyl)aminomethyl]benzamide hydrochloride] | 1 | –
Nc1ccccc1NC(=O)c1ccc(CNC(=O)c2ccc(C(=O)O)cc2)cc1 [Example 10, N-(2-aminophenyl)-4-[N-(4-carboxybenzoyl)aminomethyl]benzamide hydrochloride] | 3 | –
COC(=O)c1ccc(C(=O)NCc2ccc(C(=O)Nc3ccccc3N)cc2)cc1 [Example 11, N-(2-aminophenyl)-4-[N-(4-methoxycarboxybenzoyl)aminomethyl]benzamide] | – | minimal effective concentration [2]: 1 µM
Cn1cccc1C(=O)NCc1ccc(C(=O)Nc2ccccc2N)cc1 [Example 24, N-(2-aminophenyl)-4-[N-(N′-methyl-1H-pyrrol-2-yl)carbonylaminomethyl]benzamide] | – | minimal effective concentration [2]: 1 µM
Nc1ccccc1NC(=O)c1ccc(CNC(=O)c2c[nH]cn2)cc1 [Example 27, N-(2-aminophenyl)-4-[N-(imidazol-4-yl)carbonylaminomethyl]benzamide] | 10 | –
Nc1ccccc1NC(=O)c1ccc(CNC(=O)CNc2cccnc2)cc1 [Example 35, N-(2-aminophenyl)-4-[N-[N-(pyridin-3-yl)aminoacetyl]aminomethyl]benzamide] | 0.3 | –
Nc1nc(CC(=O)NCc2ccc(C(=O)Nc3ccccc3N)cc2)cs1 [Example 36, N-(2-aminophenyl)-4-[N-(2-aminothiazol-4-yl)acetylaminomethyl]benzamide] | 10 | –
O=C(CCc1cccnc1)NCc1ccc(C(=O)Nc2ccccc2O)cc1 [Example 40, N-(2-hydroxyphenyl)-4-[N-[3-(pyridin-3-yl)propionyl]aminomethyl]benzamide] | 10 | –
O=C(COc1cccnc1)NCc1ccc(C(=O)Nc2ccccc2O)cc1 [Example 41, N-(2-hydroxyphenyl)-4-[N-(pyridin-3-yl)oxyacetylaminomethyl]benzamide] | 0.3 | –
Nc1ccccc1NC(=O)c1ccc(CN(CCCc2cccnc2)C(=O)COc2cccnc2)cc1 [Example 43, N-(2-aminophenyl)-4-[N-(pyridin-3-yl)oxyacetyl-N-[3-(pyridin-3-yl)propyl]aminomethyl]benzamide] | 3 | –
CN(Cc1ccc(C(=O)Nc2ccccc2N)cc1)C(=O)COc1cccnc1 [Example 44, N-(2-aminophenyl)-4-[N-methyl-N-(pyridin-3-yl)oxyacetyl]aminomethylbenzamide] | – | minimal effective concentration: 0.01 µM
Nc1ccccc1NC(=O)c1ccc(CNC(=O)OCc2ccccc2)cc1 [Example 49, N-(2-aminophenyl)-4-[N-(benzyloxycarbonyl)aminomethyl]benzamide] | 1 | –
Nc1ccccc1NC(=O)c1ccc(CNC(=O)OCc2cccnc2Cl)cc1 [Example 58, N-(2-aminophenyl)-4-[N-(2-chloropyridin-3-yl)methoxycarbonylaminomethyl]benzamide] | 3 | –
Cc1ncsc1CCOC(=O)NCc1ccc(C(=O)Nc2ccccc2N)cc1 [Example 64, N-(2-aminophenyl)-4-C[N-[2-(4-methylthiazol-5-yl)ethoxycarbonyl]aminomethyl]benzamide] | – | minimal effective concentration [2]: 3 µM
CN1CCN(COC(=O)NCc2ccc(C(=O)Nc3ccccc3N)cc2)CC1 [Example 66, N-(2-aminophenyl)-4-[N-(4-methylpiperazin-1-yl)methoxycarbonylaminomethyl]benzamide] | 3 | –
Nc1ccccc1NC(=O)c1ccc(CNC(=O)OCC2CCOC2)cc1 (stereo not shown) [Example 67, N-(2-aminophenyl)-4-[N-(tetrahydrofuran-3-yl)methoxycarbonylaminomethyl]benzamide] | 3 | –
Nc1ccc(F)cc1NC(=O)c1ccc(CNC(=O)OCc2cccnc2)cc1 [Example 70, N-(2-amino-5-fluorophenyl)-4-[N-(pyridin-3-yl)methoxycarbonylaminomethyl]benzamide] | 0.1 | –
Nc1ccccc1NC(=O)c1ccc(CNC(=O)OC2CN3CCC2CC3)cc1 (stereo not shown) [Example 72, N-(2-aminophenyl)-4-[N-(quinuclidin-3-yl)oxycarbonylaminomethyl]benzamide] | – | minimal effective concentration [2]: 10 µM

Compound | minimal effective concentration [1] [µM] | also measured
Nc1ccccc1NC(=O)c1ccc(CN(Cc2cccnc2)C(=O)OCc2cccnc2)cc1 [Example 79, N-(2-aminophenyl)-4-[N-(pyridin-3-yl)methyl-N-(pyridin-3-yl)methoxycarbonylaminomethyl]benzamide] | 0.1 | –
Nc1ccccc1NC(=O)c1ccc(CN(CCCc2cccnc2)C(=O)OCc2cccnc2)cc1 [Example 80, N-(2-aminophenyl)-4-[N-[3-(Pyridin-3-yl)propyl]-N-(pyridin-3-yl)methoxycarbonylaminomethyl]benzamide] | 0.1 | –
O=C(Nc1ccccc1O)c1ccc(CN(Cc2cccnc2)C(=O)OCc2cccnc2)cc1 [Example 81, N-(2-hydroxyphenyl)-4-[N-(pyridin-3-yl)methyl-N-(pyridin-3-yl)methoxycarbonylaminomethyl]benzamide] | 10 | –
Nc1ccccc1NC(=O)c1ccc(NC(=O)OCCc2cccnc2)cc1 [Example 86, N-(2-aminophenyl)-4-[N-[2-(pyridin-3-yl)ethoxycarbonyl]amino]benzamide] | 0.3 | –
Nc1ccccc1NC(=O)c1ccc(CNC(=O)NCc2cccnc2)cc1 [Example 89, N-(2-aminophenyl)-4-[N′-(pyridin-3-ylmethyl)ureidomethyl]benzamide] | – | minimal effective concentration [2]: 0.3 µM
Nc1cccc(NC(=O)NCc2ccc(C(=O)Nc3ccccc3N)cc2)c1 [Example 90, N-(2-aminophenyl)-4-[N′-(3-aminophenyl)ureidomethyl]benzamide] | – | minimal effective concentration [2]: 3 µM
Nc1ccccc1NC(=O)c1ccc(CNC(=O)Nc2cccnc2)cc1 [Example 91, N-(2-aminophenyl)-4-[N′-(pyridin-3-yl)ureidomethyl]benzamide] | – | minimal effective concentration [2]: 0.1 µM
Nc1cccc(NC(=S)NCc2ccc(C(=O)Nc3ccccc3N)cc2)c1 [Example 92, N-(2-aminophenyl)-4-[N′-(3-aminophenyl)thioureidomethyl]benzamide] | – | minimal effective concentration [2]: 3 µM
Nc1ccccc1NC(=O)c1ccc(CNC(=S)Nc2cccc([N+](=O)[O-])c2)cc1 [Example 93, N-(2-aminophenyl)-4-[N′-(3-nitrophenyl)thioureidomethyl]benzamide] | – | minimal effective concentration [2]: 3 µM
Nc1ccc(F)cc1NC(=O)c1ccc(CNC(=O)NCc2cccnc2)cc1 [Example 94, N-(2-amino-5-fluorophenyl)-4-[N′-(pyridin-3-yl)methylureidomethyl]benzamide] | – | minimal effective concentration [2]: 3 µM
O=C(NCc1ccc(C(=O)Nc2ccccc2O)cc1)NCc1cccnc1 [Example 95, N-(2-hydroxyphenyl)-4-[N′-(pyridin-3-yl)methylureidomethyl]benzamide] | – | minimal effective concentration [2]: 3 µM
CC(=O)N(CCc1ccc(C(=O)Nc2ccccc2N)cc1)c1cccnc1 [Example 96, N-(2-aminophenyl)-4-[2-[N-(pyridin-3-yl)-acetylamino]ethyl]benzamide] | 10 | –
Nc1ccccc1NC(=O)c1ccc(COC(=O)NCCCn2ccnc2)cc1 [Example 99, N-(2-aminophenyl)-4-[3-(imidazol-1-yl)propylaminocarbonyloxymethyl]benzamide] | 3 | –
Nc1ccccc1NC(=O)c1ccc(NC(=O)CCCc2ccccc2)cc1 [Example 101, N-(2-aminophenyl)-4-[(4-phenylbutanoyl)amino]benzamide] | 3 | –
Nc1ccccc1NC(=O)c1ccc(NC(=O)Cc2ccc(Cl)cc2)cc1 [Example 102, N-(2-aminophenyl)-4-[(4-chlorophenylacetyl)amino]benzamide] | 3 | –
Nc1ccccc1NC(=O)c1ccc(NC(=O)Cc2ccccc2[N+](=O)[O-])cc1 [Example 103, N-(2-aminophenyl)-4-[(2-nitrophenylacetyl)amino]benzamide hydrochloride] | 1 | –
COc1ccc(CC(=O)Nc2ccc(C(=O)Nc3ccccc3N)cc2)cc1 [Example 107, N-(2-aminophenyl)-4-[(4-methoxyphenylacetyl)amino]benzamide] | 1 | –
Nc1ccccc1NC(=O)c1ccc(NC(=O)Cc2ccc(C(F)(F)F)cc2)cc1 [Example 109, N-(2-aminophenyl)-4-[(4-trifluoromethylphenylacetyl)amino]benzamide] | 1 | –
Nc1ccccc1NC(=O)c1ccc(NC(=O)Cc2ccccn2)cc1 [Example 110, N-(2-aminophenyl)-4-[(pyridin-2-yl)acetylamino]benzamide dihydrochloride] | 3 | –
Nc1ccccc1NC(=O)c1ccc(NC(=O)CCc2cccnc2)cc1Cl [Example 113, N-(2-aminophenyl)-2-chloro-4-[3-(pyridin-3-yl)propanoylamino]benzamide] | 0.3 | –
